Laboratory results reported in ChEMBL document CHEMBL1201862, “PubChem BioAssay data set” (2004).
Calls of active or inactive are those of the source.

Legend:
Phospholipase A2 = Phospholipase A2 (Homo sapiens, UniProt P04054); format: functional;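 further: confirmatory dose-response counterscreen on phospholipase A2, testing hits that came from an ultra-high-throughput screen for ATG4B inhibitors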
Staphylococcus aureus = assay: Inhibitors of Bacterial Quorum Sensing Structure Activity Relationship (SAR) Analysis: Dose Response Assay. [Related pubchem assays: 700, 527 ]; format: functional, organism-based
Cysteine protease ATG4B = target: T1, Cysteine protease ATG4B (Homo sapiens, UniProt Q9Y4P1); format: functional;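 further: Fluorescence-based dose-response confirmation assay measuring inhibition of ATG4B activity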
T1 sequence (Q9Y4P1 whole entry): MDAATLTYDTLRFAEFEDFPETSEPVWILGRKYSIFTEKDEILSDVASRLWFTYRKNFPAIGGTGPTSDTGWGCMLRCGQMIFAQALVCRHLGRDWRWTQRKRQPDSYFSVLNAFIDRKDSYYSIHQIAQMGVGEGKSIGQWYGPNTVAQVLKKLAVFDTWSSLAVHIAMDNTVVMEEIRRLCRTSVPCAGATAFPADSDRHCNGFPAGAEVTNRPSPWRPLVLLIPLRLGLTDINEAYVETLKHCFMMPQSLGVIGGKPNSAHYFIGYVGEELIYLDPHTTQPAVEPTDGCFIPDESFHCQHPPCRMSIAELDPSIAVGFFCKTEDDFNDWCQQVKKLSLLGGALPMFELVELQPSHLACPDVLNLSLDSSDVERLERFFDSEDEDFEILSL

Cytochrome P450 2C19 = Cytochrome P450 2C19 (Homo sapiens, UniProt P33261); assay: Cytochrome panel assay with activity outcomes. Panel member name: p450-cyp2c19 Compounds with AC50 equal or less than 10 uM are considered active; format: functional; conditions: read-out: AC50
Cytochrome P450 2C19, sequence (P33261 whole entry): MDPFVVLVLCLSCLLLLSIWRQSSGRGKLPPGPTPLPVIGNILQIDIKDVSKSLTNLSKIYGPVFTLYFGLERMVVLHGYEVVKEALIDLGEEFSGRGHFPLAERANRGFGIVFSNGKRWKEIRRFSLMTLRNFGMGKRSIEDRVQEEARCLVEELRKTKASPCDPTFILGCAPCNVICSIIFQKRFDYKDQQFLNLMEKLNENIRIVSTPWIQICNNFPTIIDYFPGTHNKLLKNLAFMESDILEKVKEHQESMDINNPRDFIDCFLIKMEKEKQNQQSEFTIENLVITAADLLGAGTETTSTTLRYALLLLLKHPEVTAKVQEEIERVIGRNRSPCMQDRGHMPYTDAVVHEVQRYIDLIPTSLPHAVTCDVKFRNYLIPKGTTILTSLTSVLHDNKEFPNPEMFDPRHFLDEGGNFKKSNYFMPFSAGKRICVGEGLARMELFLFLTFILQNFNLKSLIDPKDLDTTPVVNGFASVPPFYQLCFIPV

Cytochrome P450 3A4 = Cytochrome P450 3A4 (Homo sapiens, UniProt P08684);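 further: CYP3A4 tested as one member of a cytochrome P450 panel screen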
Cytochrome P450 3A4, sequence (P08684 whole entry): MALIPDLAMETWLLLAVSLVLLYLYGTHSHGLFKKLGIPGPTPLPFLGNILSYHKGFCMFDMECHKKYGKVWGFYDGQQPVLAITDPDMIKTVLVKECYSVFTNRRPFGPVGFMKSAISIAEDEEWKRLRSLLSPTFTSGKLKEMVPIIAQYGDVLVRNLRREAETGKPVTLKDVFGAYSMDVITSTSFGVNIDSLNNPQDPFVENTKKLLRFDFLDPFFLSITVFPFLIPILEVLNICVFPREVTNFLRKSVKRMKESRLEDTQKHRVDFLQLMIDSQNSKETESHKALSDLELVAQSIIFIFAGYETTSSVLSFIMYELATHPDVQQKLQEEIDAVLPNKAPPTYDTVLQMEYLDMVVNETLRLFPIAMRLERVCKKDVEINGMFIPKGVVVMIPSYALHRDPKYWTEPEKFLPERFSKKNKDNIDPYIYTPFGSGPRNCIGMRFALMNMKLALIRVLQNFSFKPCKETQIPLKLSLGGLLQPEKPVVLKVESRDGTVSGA

[1] = target: Transitional endoplasmic reticulum ATPase (Homo sapiens, UniProt P55072); assay: p97 ATPase inhibitors, dose response, biochemical (AID 1534)
Transitional endoplasmic reticulum ATPase (Homo sapiens, UniProt P55072), sequence (P55072 whole entry): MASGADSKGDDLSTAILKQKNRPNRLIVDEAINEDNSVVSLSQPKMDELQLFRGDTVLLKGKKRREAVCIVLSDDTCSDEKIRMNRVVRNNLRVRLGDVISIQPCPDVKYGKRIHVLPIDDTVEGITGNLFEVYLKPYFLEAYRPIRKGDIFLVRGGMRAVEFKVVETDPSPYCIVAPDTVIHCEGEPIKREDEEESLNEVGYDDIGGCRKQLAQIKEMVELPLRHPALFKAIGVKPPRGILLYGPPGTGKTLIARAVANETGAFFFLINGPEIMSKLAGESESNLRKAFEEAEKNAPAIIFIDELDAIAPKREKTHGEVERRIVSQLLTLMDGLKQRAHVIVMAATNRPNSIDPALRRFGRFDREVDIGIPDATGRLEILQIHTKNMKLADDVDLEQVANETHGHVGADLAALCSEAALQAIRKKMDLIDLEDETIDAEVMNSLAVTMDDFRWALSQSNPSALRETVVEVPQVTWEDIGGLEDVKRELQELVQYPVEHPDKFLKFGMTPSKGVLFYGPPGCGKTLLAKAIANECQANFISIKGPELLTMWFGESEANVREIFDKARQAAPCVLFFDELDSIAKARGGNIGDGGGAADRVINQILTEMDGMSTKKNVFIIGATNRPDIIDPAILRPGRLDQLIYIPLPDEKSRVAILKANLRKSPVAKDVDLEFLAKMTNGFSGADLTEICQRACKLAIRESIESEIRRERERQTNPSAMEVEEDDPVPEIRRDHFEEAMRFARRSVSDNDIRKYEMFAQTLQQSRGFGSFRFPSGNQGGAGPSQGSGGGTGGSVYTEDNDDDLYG

HEK293 [2] = assay: cells; format: functional, cell-based; conditions: Homo sapiens
[3] = target: Induced myeloid leukemia cell differentiation protein Mcl-1 (Homo sapiens, UniProt Q07820); format: functional
Induced myeloid leukemia cell differentiation protein Mcl-1, sequence (Q07820 whole entry): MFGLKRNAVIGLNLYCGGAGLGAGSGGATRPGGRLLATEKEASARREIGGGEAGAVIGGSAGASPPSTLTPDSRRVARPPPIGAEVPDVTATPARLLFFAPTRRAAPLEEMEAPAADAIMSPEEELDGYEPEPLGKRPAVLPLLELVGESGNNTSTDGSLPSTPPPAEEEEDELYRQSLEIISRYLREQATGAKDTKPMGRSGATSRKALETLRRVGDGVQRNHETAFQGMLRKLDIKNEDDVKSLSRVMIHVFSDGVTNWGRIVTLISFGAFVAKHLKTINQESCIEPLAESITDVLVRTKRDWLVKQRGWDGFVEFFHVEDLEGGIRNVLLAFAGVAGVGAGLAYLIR

Genome polyprotein = Genome polyprotein (dengue virus type 2, UniProt P29990); assay: Dengue-2 NS5 methyltransferase inhibitors, primary screen, biochemical, confirmation dose response (AID 588689); format: functional
HEK293 [4] = assay: cells; format: functional, cell-based; conditions: Homo sapiens; remark: listed apart in the source
Vero = Vero cell cytotoxicity, cytotoxicity control for flavivirus capping enzyme inhibitors (AID 588742); format: functional; conditions: Chlorocebus sabaeus
Nonstructural protein 1 = Nonstructural protein 1 (Influenza A virus, UniProt Q194T2); format: functional, Influenza A virus (A/California/07/2009(H1N1))
[5] = target: T2, Histone-lysine N-methyltransferase NSD2 (Homo sapiens, UniProt O96028); format: biochemical
T2 sequence (O96028 whole entry): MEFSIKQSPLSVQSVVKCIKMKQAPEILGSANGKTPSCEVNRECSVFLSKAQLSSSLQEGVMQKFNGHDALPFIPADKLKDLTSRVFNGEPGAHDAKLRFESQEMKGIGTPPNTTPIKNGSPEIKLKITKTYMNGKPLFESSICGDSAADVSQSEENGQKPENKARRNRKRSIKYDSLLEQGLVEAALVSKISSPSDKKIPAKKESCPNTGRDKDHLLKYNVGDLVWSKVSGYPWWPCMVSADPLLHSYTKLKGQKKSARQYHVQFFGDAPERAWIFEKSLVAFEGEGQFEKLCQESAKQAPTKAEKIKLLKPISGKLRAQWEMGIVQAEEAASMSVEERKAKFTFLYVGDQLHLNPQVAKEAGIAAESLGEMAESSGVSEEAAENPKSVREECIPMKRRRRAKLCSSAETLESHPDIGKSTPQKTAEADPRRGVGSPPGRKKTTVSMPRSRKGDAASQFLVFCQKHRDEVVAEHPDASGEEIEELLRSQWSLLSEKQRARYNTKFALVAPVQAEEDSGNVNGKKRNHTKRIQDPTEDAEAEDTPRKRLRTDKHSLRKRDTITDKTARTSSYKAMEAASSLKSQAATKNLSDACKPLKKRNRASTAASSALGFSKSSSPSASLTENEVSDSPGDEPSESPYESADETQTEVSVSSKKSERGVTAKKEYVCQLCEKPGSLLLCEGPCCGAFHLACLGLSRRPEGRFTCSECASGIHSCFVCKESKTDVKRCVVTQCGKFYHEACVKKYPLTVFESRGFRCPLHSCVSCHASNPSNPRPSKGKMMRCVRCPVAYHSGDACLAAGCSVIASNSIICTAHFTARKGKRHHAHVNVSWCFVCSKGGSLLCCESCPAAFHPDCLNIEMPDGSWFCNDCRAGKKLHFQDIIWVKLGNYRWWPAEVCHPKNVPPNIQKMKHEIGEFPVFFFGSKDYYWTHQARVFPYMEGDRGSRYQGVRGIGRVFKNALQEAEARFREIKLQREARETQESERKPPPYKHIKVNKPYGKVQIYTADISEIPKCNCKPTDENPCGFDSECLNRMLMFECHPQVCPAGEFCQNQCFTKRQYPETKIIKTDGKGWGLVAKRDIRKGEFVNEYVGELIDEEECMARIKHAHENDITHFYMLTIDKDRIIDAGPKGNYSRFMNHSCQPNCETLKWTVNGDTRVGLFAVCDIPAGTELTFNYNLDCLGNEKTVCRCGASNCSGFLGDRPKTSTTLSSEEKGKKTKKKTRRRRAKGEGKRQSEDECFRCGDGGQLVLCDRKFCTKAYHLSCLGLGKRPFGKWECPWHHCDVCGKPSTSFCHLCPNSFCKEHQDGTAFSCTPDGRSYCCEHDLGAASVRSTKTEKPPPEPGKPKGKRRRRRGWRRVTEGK

HEK293 [6] = assay: NOD1 signaling inhibitors, primary screen, cell-based, luminescence, uHTS (AID 1578); format: functional; conditions: Homo sapiens
[7] = HIV-1 Env-mediated cell fusion inhibitors, dose response, CCR5-tropic Env (AID 2279); format: functional
HEK293 [8] = assay: NOD2 signaling inhibitors in MDP-stimulated cells, cell-based, uHTS, luminescence (AID 2001); format: functional; conditions: Homo sapiens
[9] = target: Transitional endoplasmic reticulum ATPase (Homo sapiens, UniProt P55072, C522A); assay: C522A mutant p97 ATPase inhibitors, dose response, counter-screen for p97 inhibitor project, biochemical, luminescence (AID 1544)
Transitional endoplasmic reticulum ATPase (Homo sapiens, UniProt P55072, C522A), sequence (P55072 2-806 C522A limits assumed): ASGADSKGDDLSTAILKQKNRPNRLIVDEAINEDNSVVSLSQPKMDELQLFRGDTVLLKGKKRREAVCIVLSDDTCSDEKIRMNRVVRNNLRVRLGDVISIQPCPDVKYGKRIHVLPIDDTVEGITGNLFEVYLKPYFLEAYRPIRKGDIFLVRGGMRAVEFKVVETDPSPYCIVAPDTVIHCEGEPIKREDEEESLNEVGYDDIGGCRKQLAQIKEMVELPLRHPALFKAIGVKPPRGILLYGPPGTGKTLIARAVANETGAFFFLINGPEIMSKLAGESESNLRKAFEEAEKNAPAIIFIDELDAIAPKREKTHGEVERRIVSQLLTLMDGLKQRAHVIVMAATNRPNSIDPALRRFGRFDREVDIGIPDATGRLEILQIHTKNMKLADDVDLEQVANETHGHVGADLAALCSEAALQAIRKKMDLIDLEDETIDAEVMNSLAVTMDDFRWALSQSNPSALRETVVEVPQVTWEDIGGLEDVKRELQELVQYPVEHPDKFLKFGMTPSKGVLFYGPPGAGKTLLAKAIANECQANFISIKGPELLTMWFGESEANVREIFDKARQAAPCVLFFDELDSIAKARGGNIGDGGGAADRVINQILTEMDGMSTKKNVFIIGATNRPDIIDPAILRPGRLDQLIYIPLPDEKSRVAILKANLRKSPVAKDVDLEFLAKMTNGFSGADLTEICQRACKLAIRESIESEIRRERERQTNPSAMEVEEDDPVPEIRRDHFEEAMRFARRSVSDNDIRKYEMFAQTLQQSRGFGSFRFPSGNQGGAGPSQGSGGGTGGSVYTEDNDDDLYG

Interleukin-8 = Interleukin-8 (Homo sapiens, UniProt P10145); assay: SAR analysis of tumor necrosis factor alpha (TNF-alpha) induced IL-8 secretion in MCF-7/NOD1 cells. [Related pubchem assays (depositor defined):AID1575, AID2250, AID2260]; format: functional, cell-based
[10] = target: Nucleotide-binding oligomerization domain-containing protein 2 (Homo sapiens, UniProt Q9HC29); assay: PubChem AID 2334; format: functional
Nucleotide-binding oligomerization domain-containing protein 2, sequence (Q9HC29 whole entry, the tested form may be a part): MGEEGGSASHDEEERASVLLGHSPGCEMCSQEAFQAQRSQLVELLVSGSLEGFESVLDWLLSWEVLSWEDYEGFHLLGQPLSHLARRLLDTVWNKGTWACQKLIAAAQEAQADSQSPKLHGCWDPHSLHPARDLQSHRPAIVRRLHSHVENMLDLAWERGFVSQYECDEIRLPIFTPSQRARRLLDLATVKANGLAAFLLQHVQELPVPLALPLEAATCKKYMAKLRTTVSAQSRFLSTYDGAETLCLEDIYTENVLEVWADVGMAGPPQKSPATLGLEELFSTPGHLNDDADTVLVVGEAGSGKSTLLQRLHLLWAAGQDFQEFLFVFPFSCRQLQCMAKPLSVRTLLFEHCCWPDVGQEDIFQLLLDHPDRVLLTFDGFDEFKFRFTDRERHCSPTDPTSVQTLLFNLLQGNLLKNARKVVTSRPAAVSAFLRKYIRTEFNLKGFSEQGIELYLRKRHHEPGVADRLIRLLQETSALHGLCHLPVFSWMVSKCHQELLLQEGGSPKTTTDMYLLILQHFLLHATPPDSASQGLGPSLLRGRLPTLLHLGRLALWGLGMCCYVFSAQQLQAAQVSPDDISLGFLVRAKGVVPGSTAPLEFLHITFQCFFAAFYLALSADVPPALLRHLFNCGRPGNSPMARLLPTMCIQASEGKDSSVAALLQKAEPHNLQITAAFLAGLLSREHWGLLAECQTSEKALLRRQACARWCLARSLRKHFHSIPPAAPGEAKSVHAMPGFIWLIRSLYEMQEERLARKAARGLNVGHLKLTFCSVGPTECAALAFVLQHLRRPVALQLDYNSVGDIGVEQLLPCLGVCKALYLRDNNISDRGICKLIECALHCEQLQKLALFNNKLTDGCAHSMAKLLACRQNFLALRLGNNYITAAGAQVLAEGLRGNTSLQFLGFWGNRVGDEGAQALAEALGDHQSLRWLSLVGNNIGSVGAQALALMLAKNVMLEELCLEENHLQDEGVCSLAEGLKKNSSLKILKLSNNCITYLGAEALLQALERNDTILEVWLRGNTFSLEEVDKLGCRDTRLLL

Tumor necrosis factor = Tumor necrosis factor (Homo sapiens, UniProt P01375); assay: TNFa-triggered NF-kB activation inhibitors, SAR follow-up, cell-based, revised (AID 2337); format: functional
Tumor necrosis factor, sequence (P01375 whole entry, the tested form may be a part): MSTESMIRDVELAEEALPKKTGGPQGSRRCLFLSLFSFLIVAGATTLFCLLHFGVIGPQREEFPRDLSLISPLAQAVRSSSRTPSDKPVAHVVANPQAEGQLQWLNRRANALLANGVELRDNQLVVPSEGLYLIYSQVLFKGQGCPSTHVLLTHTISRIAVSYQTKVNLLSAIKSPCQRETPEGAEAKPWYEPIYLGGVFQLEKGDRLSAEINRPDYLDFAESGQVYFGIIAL

[11] = target: T3, Nucleotide-binding oligomerization domain-containing protein 1 (Homo sapiens, UniProt Q9Y239); assay: NOD1 signaling inhibitors, SAR follow-up, revised (AID 2333); format: functional
T3 sequence (Q9Y239 whole entry): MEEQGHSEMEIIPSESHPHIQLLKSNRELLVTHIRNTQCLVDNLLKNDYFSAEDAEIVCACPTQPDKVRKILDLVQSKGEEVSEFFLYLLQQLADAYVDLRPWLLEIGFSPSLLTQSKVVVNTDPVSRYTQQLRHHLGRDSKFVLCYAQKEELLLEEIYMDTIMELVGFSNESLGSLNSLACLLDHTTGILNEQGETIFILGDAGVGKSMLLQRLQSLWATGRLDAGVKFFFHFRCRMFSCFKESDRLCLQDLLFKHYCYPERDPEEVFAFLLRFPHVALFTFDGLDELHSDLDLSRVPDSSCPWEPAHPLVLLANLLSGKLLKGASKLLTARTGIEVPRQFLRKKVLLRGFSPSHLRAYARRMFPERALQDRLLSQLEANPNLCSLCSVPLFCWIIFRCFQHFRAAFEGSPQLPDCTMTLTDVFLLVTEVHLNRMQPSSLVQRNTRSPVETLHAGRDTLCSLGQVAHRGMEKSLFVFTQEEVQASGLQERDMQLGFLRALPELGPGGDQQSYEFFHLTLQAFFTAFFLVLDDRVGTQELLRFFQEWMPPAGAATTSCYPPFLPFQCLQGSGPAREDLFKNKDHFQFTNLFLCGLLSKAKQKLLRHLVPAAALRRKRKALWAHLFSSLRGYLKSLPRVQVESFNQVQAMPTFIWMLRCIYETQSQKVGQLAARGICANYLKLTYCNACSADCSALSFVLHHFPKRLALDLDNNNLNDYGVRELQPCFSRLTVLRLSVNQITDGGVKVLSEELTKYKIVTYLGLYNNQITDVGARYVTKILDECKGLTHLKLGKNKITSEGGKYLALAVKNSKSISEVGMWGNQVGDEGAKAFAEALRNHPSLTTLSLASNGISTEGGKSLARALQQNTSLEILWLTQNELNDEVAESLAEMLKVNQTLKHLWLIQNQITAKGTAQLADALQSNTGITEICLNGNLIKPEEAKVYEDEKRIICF

HEK293 [12] = assay: cells; conditions: Homo sapiens
[13] = target: Luciferin 4-monooxygenase (Photinus pyralis, UniProt P08659); assay: In vitro luciferase assay using purified luciferase. [Related pubchem assays: 1299, 1270, 1295, 1375, 1287, 1281, 1293, 1291, 1289, 1280, 465, 1364, 1282, 1372, 1365, 1370, 1367, 1366, 1266, 1373, 1292, 1290, 1302, 1371, 1283, 1271, 1294, 1374, 1368, 1369 ]
HEK293 [14] = assay: PMA/Ionomycin induced NF-kB luciferase assay in 293- NF-kB-Luc stable cells. [Related pubchem assays: 1299, 1270, 1295, 1375, 1287, 1281, 1293, 1291, 1289, 1280, 465, 1364, 1282, 1372, 1365, 1370, 1367, 1366, 1269, 1373, 1292, 1290, 1302, 1371, 1283, 1271, 1294, 1374, 1368, 1369 ]; format: functional, cell-based; conditions: Homo sapiens
HEK293 [15] = assay: Cytotoxicity assay in HEK293 cells. [Related pubchem assays (depositor defined):AID1266, AID1269, AID1270, AID1271, AID1280, AID1281, AID1282, AID1283, AID1287, AID1289, AID1290, AID1291, AID1292, AID1293, AID1294, AID1295, AID1299, AID1302, AID1364, AID1365, AID1366, AID1367, AID1369, AID1370, AID1371, AID1372, AID1373, AID1374, AID1375, AID1384 …; format: functional, cell-based; conditions: Homo sapiens
[16] = target: Cyclin-dependent kinase 5/CDK5 activator 1 (Homo sapiens, UniProt Q00535); assay: CDK5/p35 kinase inhibitors, dose response, biochemical, cherry-picked samples, set 2 (AID 504545)
Cyclin-dependent kinase 5/CDK5 activator 1, sequence (Q00535 whole entry): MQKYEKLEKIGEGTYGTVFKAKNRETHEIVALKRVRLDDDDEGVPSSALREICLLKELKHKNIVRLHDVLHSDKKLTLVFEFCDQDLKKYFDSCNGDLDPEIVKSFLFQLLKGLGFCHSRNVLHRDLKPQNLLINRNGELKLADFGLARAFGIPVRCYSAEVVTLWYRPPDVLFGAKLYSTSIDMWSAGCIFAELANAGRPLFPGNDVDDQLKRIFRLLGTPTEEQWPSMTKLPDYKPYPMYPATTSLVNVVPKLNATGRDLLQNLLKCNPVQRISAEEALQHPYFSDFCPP
Cyclin-dependent kinase 5/CDK5 activator 1, sequence (Q15078 whole entry, further chain): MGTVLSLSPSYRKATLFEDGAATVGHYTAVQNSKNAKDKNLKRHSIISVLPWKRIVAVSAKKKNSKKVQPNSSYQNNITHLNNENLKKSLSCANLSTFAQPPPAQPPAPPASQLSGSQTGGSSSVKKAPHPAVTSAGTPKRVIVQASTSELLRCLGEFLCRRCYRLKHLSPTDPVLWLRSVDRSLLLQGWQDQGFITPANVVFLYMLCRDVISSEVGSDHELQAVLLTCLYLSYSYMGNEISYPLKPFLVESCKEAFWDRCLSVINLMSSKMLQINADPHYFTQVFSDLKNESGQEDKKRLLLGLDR

Phospholipase A2, sequence (P04054 whole entry): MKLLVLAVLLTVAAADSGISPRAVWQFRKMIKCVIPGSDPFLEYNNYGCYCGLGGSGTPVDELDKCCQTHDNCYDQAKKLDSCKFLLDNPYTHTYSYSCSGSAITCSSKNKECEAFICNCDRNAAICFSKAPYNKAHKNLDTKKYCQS

## Cc1c(Cl)cccc1Nc1ccccc1C(=O)O [TOLFENAMIC ACID]
Phospholipase A2
  IC50: 7.74 µM (active)
Staphylococcus aureus
  IC50: 0.459 µM (active)
Cysteine protease ATG4B
  IC50: 8.17 µM (active)
Cytochrome P450 2C19
  AC50: 15.8 µM (inconclusive)
Cytochrome P450 3A4
  AC50: inconclusive

## CCn1nc([N+](=O)[O-])c(C(C#N)c2nc3cc(C(F)(F)F)ccc3s2)c(Cl)c1=O (stereo unspecified)
[1]
  IC50: > 50 µM (not active)
HEK293 [2]
  IC50: 11 µM (active)
[3]
  IC50: 3.87 µM (active)
Genome polyprotein
  IC50: 57.5 µM (active)
HEK293 [4]
  IC50: 2.78 µM (active)
Vero
  CC50: > 40 µM (active)
Nonstructural protein 1
  IC50: 19.9 µM (active)
[5]
  AC50: 19 µM (active)
HEK293 [6]
  EC50: 6.94 µM (active)
[7]
  IC50: 11.9 µM (active)
HEK293 [8]
  IC50: 3.47 µM (inactive)
[9]
  IC50: > 50 µM (not active)

## O=C(O)c1c(NC(=O)N2CCOCC2)sc2c1CCCC2
Interleukin-8
  IC50: > 25 µM (inactive)
[10]
  IC50: > 20 µM (inactive)
Tumor necrosis factor
  IC50: > 20 µM (inactive)
[11]
  IC50: 1.47 µM (active)
HEK293 [12]
  IC50: > 20 µM (inactive)

## COc1ccc(CNC(=O)c2ccc([N+](=O)[O-])o2)cc1
[13]
  EC50: > 8 µM (not active)
HEK293 [14]
  EC50: 4.24 µM (not active)
HEK293 [15]
  EC50: > 8 µM (inactive)

## CC(C)n1cnc2c(Nc3cccc(F)c3)nc(NCCO)nc21
[16]
  AC50: 5.86 µM (active)
